From US7208505B2, “β3 adrenergic agonists” (Eli Lilly and Company, priority 2001, dated 2007)

Each molecule was assayed against T1, human β3 adrenergic receptor (Homo sapiens, UniProt P13945) (assay: whole cell receptor coupled c-AMP assay (Emax relative to isoproterenol)). Conditions: % intrinsic activity: maximal response divided by isoproterenol maximal response times 100; transfected CHO cells; average of at least 3 runs.
T1 construct: expressed in transfected cells
Format: cell-based
Excerpt: The genes encoding the human β1-adrenergic receptor (Frielle et al., Proc. Natl. Acad. Sci., 84:7920–7924, 1987), the human β2-adrenergic receptor (Kobika et al., Proc. Natl. Acad. Sci., 84:46–50, 1987, Emorine et al., Proc. Natl. Acad. Sci., 84:6995–6999, 1987) and the human β3 adrenergic receptor (Granneman et al., Molecular Pharmacology, 44(2):264–70, 1993) are individually subcloned into a phd expression vector (Grinnell et al., Bio/Technology, 5:1189–1192, 1987) and transfected into the DXB-11 Chinese hamster ovary (CHO) cell line by calcium phosphate precipitation methodology. The stably transfected cells are grown to 95% confluency in 95% Dulbecco's modified Eagles Medium (DMEM), 5% fetal bovine serum and 0.01% proline. Media is removed and the cells are washed with phosphate buffered (pH 7.4) saline (without magnesium and calcium). Cells are then lifted using an enzyme free cell dissociation solution (Specialty Media, Lavallette, N.J.) and pelleted by centrifugation.
Cells from each of the above cell lines are resuspended and added (20,000/well) to a 96-well plate. Cells are incubated at 37° C. with representative compounds of the invention for 20 minutes in buffer (Hank's balanced salt solution, 10 mM HEPES, 0.1% BSA, 1 mM L-ascorbic acid, 0.2% dimethyl sulfoxide, 1 mM 3-isobutyl-1-methylxanthine, pH 7.4). After halting the incubation with quench buffer (50 mM Na Acetate, 0.25% Triton X-100, pH 5.8), the c-AMP level is quantified by scintillation proximity assay (SPA) using a modification of the commercially available c-AMP kit (Amersham, Arlington Heights, Ill.) with rabbit anti-cAMP antibody (ICN Biomedicals, Aurora, Ohio) for the kit.
Sigmoidal dose response curves, from the whole cell receptor coupled c-AMP assay are fit to a four parameter logistic equation using non linear regression: y=(a−d)/(1+(Dose/c)^b)+d where a and d are responses at zero and maximal dose, b is the slope factor and c is the EC50 as previously described (DeLean et al., Am. J. Physiol., 235, E97-E102, 1978). EC50 is assessed as the concentration producing 50% of the maximum response to each agonist.
Isoproterenol is accepted in the art as a non-selective β3 agonist and is widely used as a comparator in evaluating the activity of compounds. See Trends in Pharm. Sci., 15:3, 1994. The % intrinsic activity (Emax) of representative compounds of the invention is assessed relative to isoproterenol by the compound's maximal response divided by the isoproterenol maximal response times 100.

T1 sequence (P13945 whole entry): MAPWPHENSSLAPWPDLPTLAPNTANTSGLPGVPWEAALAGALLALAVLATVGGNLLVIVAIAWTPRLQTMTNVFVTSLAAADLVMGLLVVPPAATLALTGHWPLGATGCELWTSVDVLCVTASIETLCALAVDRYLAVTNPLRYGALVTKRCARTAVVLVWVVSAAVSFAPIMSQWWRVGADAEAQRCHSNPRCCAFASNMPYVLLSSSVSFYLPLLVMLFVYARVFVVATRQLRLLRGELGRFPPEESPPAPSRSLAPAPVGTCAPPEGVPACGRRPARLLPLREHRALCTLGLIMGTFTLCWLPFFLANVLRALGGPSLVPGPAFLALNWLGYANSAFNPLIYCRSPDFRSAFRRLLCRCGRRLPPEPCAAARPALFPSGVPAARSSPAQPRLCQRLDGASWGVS

| Structure (SMILES) | Emax (%) ± SEM [%] |
| --- | --- |
| C[C@H](CN1CCc2ccccc21)NC[C@H](O)COc1ccccc1-c1ccon1 [Example 129] | 35.2 ± 3.3 |
| CC(C)(Cc1c[nH]c2c(OCC#N)cccc12)NC[C@H](O)COc1ccccc1-c1csc(C#N)c1.O=C(O)C(F)(F)F [Example 16] | 54.2 ± 2.2 |
| CC(C)(Cc1c[nH]c2c(-c3ccc(C(F)(F)F)cc3)cccc12)NC[C@H](O)COc1ccccc1-c1ccon1 [Example 105] | 69.1 ± 3.8 |
| C[C@H](Cn1ccc2cc(OCC#N)ccc21)NC[C@H](O)COc1ccccc1-c1cccs1 [Example 155] | 58.7 ± 13.4 |
| C[C@H](NC[C@H](O)COc1ccccc1-c1cccs1)C(=O)N1CCc2ccccc21 [Example 130] | 36.3 ± 1.8 |
| CC(C)(Cc1c[nH]c2cccc(F)c12)NC[C@H](O)COc1ccccc1-c1ccon1 [Example 166] | 47.8 ± 0.6 |
| CC(C)(Cc1c[nH]c2c(-c3cccc(C(F)(F)F)c3)cccc12)NC[C@H](O)COc1ccccc1-n1cccc1 [Example 39] | 71.7 ± 3.0 |
| C[C@H](Cn1ccc2c(OCC#N)cccc21)NC[C@H](O)COc1ccccc1-c1ccns1 [Example 151] | 52.4 ± 4.3 |
| CC(C)(Cc1c[nH]c2ccc(F)cc12)NC[C@H](O)COc1ccccc1-c1ccon1 [Example 167] | 40.8 ± 1.3 |
| C[C@H](Cn1ccc2c(OCC#N)cccc21)NC[C@H](O)COc1ccccc1-c1cccs1 [Example 152] | 63.1 ± 4.4 |
| C[C@H](CN1CCc2ccccc21)NC[C@H](O)COc1ccccc1-c1cccs1 [Example 128] | 46.5 ± 3.0 |
| CC(C)(Cc1c[nH]c2c(OCC#N)cccc12)NC[C@H](O)COc1ccccc1-c1cnco1.O=C(O)C(F)(F)F [Example 7] | 58.4 ± 1.7 |
| COC(=O)c1cccc2c1ccn2C[C@@H](C)NC[C@H](O)COc1ccccc1-c1cccs1 [Example 153] | 45.2 ± 8.4 |
| CC(C)(Cc1c[nH]c2c(-c3ccc(C(F)(F)F)cc3C(F)(F)F)cccc12)NC[C@H](O)COc1ccccc1-c1ccon1 [Example 111] | 86.0 ± 4.0 |

Results, then the molecule that gave them:

| Emax (%) ± SEM [%] | Structure (SMILES) |
| --- | --- |
| 89.6 ± 10.9 | CC(C)(Cc1c[nH]c2c(NS(=O)(=O)c3ccccc3)cccc12)NC[C@H](O)COc1ccccc1-c1cccs1 [Example 25] |
| 45.5 ± 3.5 | CC(C)(Cc1c[nH]c2ccccc12)NC[C@H](O)COc1ccccc1-c1nncs1 [Example 82] |
| 94.3 ± 4.6 | CC(C)(Cc1c[nH]c2c(OCC(=O)O)cccc12)NC[C@H](O)COc1ccccc1-c1cccs1 [Example 224] |
| 65.0 ± 2.0 | CC(C)(Cc1c[nH]c2c(C=CS(C)(=O)=O)cccc12)NCC(O)COc1ccccc1-c1cccs1 (stereo not drawn) [Example 141] |
| 74.1 ± 2.4 | CC(C)(Cc1c[nH]c2cc(C(=O)O)ccc12)NC[C@H](O)COc1ccccc1-c1ccc(C#N)s1 [Example 96] |
| 66.4 ± 8.7 | CC(C)(Cc1c[nH]c2c(C=CC#N)cccc12)NCC(O)COc1ccccc1-c1cccs1 (stereo not drawn) [Example 143] |
| 82.1 ± 1.4 | CC(C)(Cc1c[nH]c2c(CCS(C)(=O)=O)cccc12)NC[C@H](O)COc1ccccc1-c1cccs1 [Example 142] |
| 35.1 ± 2.1 | CC(C)(Cc1c[nH]c2ccccc12)NC[C@H](O)COc1ccc(F)cc1-c1ccno1 [Example 81] |
| 37.3 ± 2.7 | COC(=O)c1ccc2[nH]cc(CC(C)(C)NC[C@H](O)COc3ccccc3-c3cccs3)c2c1 [Example 70] |

Same assay, conditions: CHO, % intrinsic activity: maximal response divided by isoproterenol maximal response times 100; transfected CHO cells; average of at least 3 runs

| Emax [%] | Structure (SMILES) |
| --- | --- |
| 81.2 ± 0.6 | CC(C)(Cc1c[nH]c2c(CCc3ccc(C(N)=O)cc3)cccc12)NC[C@H](O)COc1ccccc1-c1cccs1 [Example 220] |
| 79.2 ± 3.4 | CC(C)(Cc1c[nH]c2c(-c3ccc(C(=O)O)cc3)cccc12)NC[C@H](O)COc1ccccc1-c1cccs1 [Example 246] |
| 81.3 ± 2.4 | CC(C)(Cc1c[nH]c2c(/C=C/c3nnn[nH]3)cccc12)NC[C@H](O)COc1ccccc1-c1cccs1 [Example 230] |
| 85 ± 4.9 | CC(C)(Cc1c[nH]c2c(OCC3=NCCS3)cccc12)NC[C@H](O)COc1ccccc1-c1cccs1 [Example 231] |
